Counter-ions that a name gives are not always drawn.
Key:
platelet aggregation = test: Born/O'Brien nephelometric platelet aggregation test in platelet rich plasma (ADP or collagen induced); format: cell-based; conditions: human or rabbit platelet rich plasma, 50% or more reduction, read-out: Concentration at which collagen or adenosine diphosphate induced platelet aggregation is reduced by 50% or more
Protocol: (§1) Measurement of the antithrombogenic activity of the compounds of Formula I is carried out by standard pharmacological tests essentially described by Born, Nature, 194, 927 (1962) and O'Brien, J. Clin. Path., 15, 446 (1962). This test comprises a nephelometric method is which the change in turbidity of a specimen of platelet rich plasma (human or rabbit) is measured on causation of platelet aggregation by addition of a thrombogenic inducing agent such as adenosine diphosphate or collagen. The compounds of the present invention are effective antithrombogenic agents according to this test at concentrations in the order of about 0.5 to 90 mcg./0.5 ml. platelet rich plasma. In the intact animal, the antithrombogenic effect is readily observed by applying the above test to blood samples withdrawn prior to and after administration of a compound of the present invention.

mouse electroshock = test: Mouse electroshock test of Swinyard (anticonvulsant); format: in vivo; conditions: oral
Excerpt: Aside from antithrombogenic and analgesic effects, compounds of Formula I wherein R1 and R2 substituents are halogen (particularly chlorine), R3 is hydrogen or methyl and A is selected from the group consisting of lower alkyl of from 1 to 8 carbon atoms inclusive or cycloalkyl of from 3 to 6 carbon atoms inclusive, are useful as anticonvulsant, hypotensive and antihypertensive agents. […] For example, N-(2,6-dichlorostyryl)acetamidine in the mouse electroshock test of E. A. Swinyard, J. Amer. Pharm.

blood pressure [1] = test: Blood pressure in spontaneous hypertensive rat; format: in vivo; conditions: oral 5 to 50.0 mg./kg.
Protocol: (§2) For instance, at 1.0 mg./kg. body weight, this compound provides a 33% reduction in blood pressure while at 10.0 mg./kg. body weight, a 64% reduction in blood pressure is obtained. In the same test procedure, the prior art cinnamylamidine, N-(4-chlorocinnamyl)acetamidine, provided a 12% increase in blood pressure with a 6% decrease in heart rate at a dose of 1.0 mg./kg. body weight. At a dose of 10.0 mg./kg. body weight, the prior art cinnamylamidine provides an increase of 26% in blood pressure.

blood pressure [2] = test: Blood pressure and heart rate in anesthetized normotensive dog; format: in vivo
Protocol: as §2

urine output = test: Lipschitz diuretic test; format: in vivo; conditions: oral; 12.5 mg./kg. body weight
Excerpt: N-(2,6-dichlorostyryl)acetamidine is orally effective as a diuretic agent according to the W. L. Lipschitz, et al., J. Pharmacol. Expt.

[3] = system: blood platelet aggregation; test: Oral administration to rabbits; inhibition of blood platelet aggregation induced by ADP or collagen in platelet rich plasma (Example 56); format: in vivo; conditions: rabbit, oral single dose 25 mg./kg.; for % Inhibition of Blood Platelet Aggregation Induced by ADP: ADP 0.25-1.0 microgram; for % Inhibition of Blood Platelet Aggregation Induced by Collagen: lowest amount of collagen giving maximal aggregation
Protocol: as §1
The styrylamidine is orally administered to each rabbit in a group of 2-6 rabbits at a single dose of 25 mg./kg. body weight. A 8 ml. portion of blood is drawn just prior to dosing in order to obtain a control value and at various time periods thereafter. Platelet rich plasma is prepared from each blood sample by centrifugation at 200 times gravity for 10 min. at room temperature. Samples (0.5 ml.) of platelet rich plasma are tested for their ability to aggregate with either collagen or adenosine-5'-diphosphate added as specified in the modification of Born and O'Brien method which has been fully described hereinbefore. The results shown below indicate the inhibition of blood platelet aggregation induced by the lowest amount of collagen giving maximal aggregation or 0.25-1.0 microgram adenosine-5'-diphosphate for representative amidines.

[4] = system: phenylquinone writhing syndrome; test: Phenylquinone writhing test (analgesic activity); format: in vivo; conditions: mice
Protocol: In this test, groups of 10-20 mice are injected subcutaneously or orally with different doses of the test compound. At predetermined time intervals, the mice receive 2.5 mg./kg. phenylquinone intraperitoneally. The total number of writhing episodes is counted for each mouse for 10 min. and the average percent decrease in writhing recorded for each dose.
The novel styrylsulfonylamidines of Formula V in addition to being useful as precursors to the styrylamidine products of Formula I have analgesic utility as measured in the foregoing phenylquinone writhing test. A preferred class of styrylsulfonylamidines of Formula V having particularly significant analgesic activity are those wherein R1 and R2 are each hydrogen, nitro or halogen and A is phenyl or lower alkyl of from 1 to 8 carbon atoms inclusive. Analgesic activity at the time interval indicated following administration of compounds representative of this class are given in Table I below.

[5] = subcutaneous 6 mg./kg., time interval 30 min.

N=C(N/C=C/c1ccc([N+](=O)[O-])cc1)c1cc(N)cc(N)c1 [3,5-DIAMINO-N-(4-NITROSTYRYL)-BENZAMIDINE TRIHYDROCHLORIDE]
IC50 (platelet aggregation): < 30 µg/mL

N=C(N/C=C/c1ccc(N)cc1)c1cccc(N)c1 [3-AMINO-N-(4-AMINOSTYRYL)BENZAMIDINE TRIHYDROCHLORIDE MONOHYDRATE]
IC50 (platelet aggregation): < 30 µg/mL

CN(C)c1ccc(C(=N)N/C=C/c2ccc([N+](=O)[O-])cc2)cc1 [4-(DIMETHYLAMINO)-N-(4-NITROSTYRYL)-BENZAMIDINE ISETHIONATE]
IC50 (platelet aggregation): < 30 µg/mL

N=C(N/C=C/c1ccc(N)cc1)c1ccc(N)cc1 [4-AMINO-N-(4-AMINOSTYRYL)BENZAMIDINE TRIHYDROCHLORIDE]
IC50 (platelet aggregation): < 30 µg/mL

N=C(N/C=C/c1ccc([N+](=O)[O-])cc1)c1ccc(N)cc1 [4-AMINO-N-(4-NITROSTYRYL)BENZAMIDINE HYDROCHLORIDE]
IC50 (platelet aggregation): < 30 µg/mL

CC(=N)N/C=C/c1c(Cl)cccc1Cl [N-(2,6-dichlorostyryl)acetamidine]
ED50 (mouse electroshock): 44 mg/kg
Reduction of blood pressure (blood pressure [1]): substantial reduction of blood pressure
Reduction in blood pressure (blood pressure [2]; intravenous 1.0 mg./kg.): 33%
Reduction in blood pressure (blood pressure [2]; intravenous 10.0 mg./kg.): 64%
Reduction in blood pressure (blood pressure [2]; intravenous 0.01 to 10 mg./kg.): dose related reduction in blood pressure
Urine output (urine output): doubled the urine output

N=C(N/C=C/c1ccccc1N)c1ccccc1 [N-(2-AMINOSTYRYL)BENZAMIDINE DIHYDROCHLORIDE]
IC50 (platelet aggregation): < 30 µg/mL

CC(C)(C)C(=N)N/C=C/c1ccc(Cl)c(Cl)c1 [N-(3,4-DICHLOROSTYRYL)-2,2-DIMETHYLPROPIONAMIDINE]
% Inhibition of Blood Platelet Aggregation Induced by ADP ([3]; 1 hr.): 60%
% Inhibition of Blood Platelet Aggregation Induced by ADP ([3]; 2 hrs.): 25%
% Inhibition of Blood Platelet Aggregation Induced by ADP ([3]; 4 hrs.): 67%
% Inhibition of Blood Platelet Aggregation Induced by ADP ([3]; 6 hrs.): 87%
% Inhibition of Blood Platelet Aggregation Induced by ADP ([3]; 24 hrs.): 0%
% Inhibition of Blood Platelet Aggregation Induced by Collagen ([3]; 1 hr.): 78%
% Inhibition of Blood Platelet Aggregation Induced by Collagen ([3]; 2 hrs.): 80%
% Inhibition of Blood Platelet Aggregation Induced by Collagen ([3]; 4 hrs.): 95%
% Inhibition of Blood Platelet Aggregation Induced by Collagen ([3]; 6 hrs.): 95%
% Inhibition of Blood Platelet Aggregation Induced by Collagen ([3]; 24 hrs.): 0%

CC(=N)N/C=C/c1ccc(Cl)c(Cl)c1 [N-(3,4-DICHLOROSTYRYL)ACETAMIDINE HYDROCHLORIDE]
IC50 (platelet aggregation): < 30 µg/mL
% Inhibition of Blood Platelet Aggregation Induced by ADP ([3]; 1 hr.): 50%
% Inhibition of Blood Platelet Aggregation Induced by ADP ([3]; 2 hrs.): 52%
% Inhibition of Blood Platelet Aggregation Induced by ADP ([3]; 4 hrs.): 67%
% Inhibition of Blood Platelet Aggregation Induced by ADP ([3]; 6 hrs.): 55%
% Inhibition of Blood Platelet Aggregation Induced by ADP ([3]; 24 hrs.): 0%
% Inhibition of Blood Platelet Aggregation Induced by Collagen ([3]; 1 hr.): 67%
% Inhibition of Blood Platelet Aggregation Induced by Collagen ([3]; 2 hrs.): 50%
% Inhibition of Blood Platelet Aggregation Induced by Collagen ([3]; 4 hrs.): 85%
% Inhibition of Blood Platelet Aggregation Induced by Collagen ([3]; 6 hrs.): 55%
% Inhibition of Blood Platelet Aggregation Induced by Collagen ([3]; 24 hrs.): 0%

N=C(N/C=C/c1ccc(Cl)c(Cl)c1)c1ccccc1 [N-(3,4-DICHLOROSTYRYL)BENZAMIDINE HYDROCHLORIDE]
% Inhibition of Blood Platelet Aggregation Induced by ADP ([3]; 0.5 hrs.): 61%
% Inhibition of Blood Platelet Aggregation Induced by ADP ([3]; 2 hrs.): 54%
% Inhibition of Blood Platelet Aggregation Induced by ADP ([3]; 4 hrs.): 30%
% Inhibition of Blood Platelet Aggregation Induced by ADP ([3]; 6 hrs.): 22%
% Inhibition of Blood Platelet Aggregation Induced by ADP ([3]; 24 hrs.): 0%
% Inhibition of Blood Platelet Aggregation Induced by Collagen ([3]; 0.5 hrs.): 73%
% Inhibition of Blood Platelet Aggregation Induced by Collagen ([3]; 2 hrs.): 65%
% Inhibition of Blood Platelet Aggregation Induced by Collagen ([3]; 4 hrs.): 26%
% Inhibition of Blood Platelet Aggregation Induced by Collagen ([3]; 6 hrs.): 3%
% Inhibition of Blood Platelet Aggregation Induced by Collagen ([3]; 24 hrs.): 0%

CCCC(=N)N/C=C/c1ccc(Cl)c(Cl)c1 [N-(3,4-DICHLOROSTYRYL)BUTYRAMIDINE HYDROCHLORIDE]
% Inhibition of Blood Platelet Aggregation Induced by ADP ([3]; 1 hr.): 18%
% Inhibition of Blood Platelet Aggregation Induced by ADP ([3]; 2 hrs.): 67%
% Inhibition of Blood Platelet Aggregation Induced by ADP ([3]; 4 hrs.): 37%
% Inhibition of Blood Platelet Aggregation Induced by ADP ([3]; 6 hrs.): 30%
% Inhibition of Blood Platelet Aggregation Induced by ADP ([3]; 24 hrs.): 0%
% Inhibition of Blood Platelet Aggregation Induced by Collagen ([3]; 1 hr.): 30%
% Inhibition of Blood Platelet Aggregation Induced by Collagen ([3]; 2 hrs.): 92%
% Inhibition of Blood Platelet Aggregation Induced by Collagen ([3]; 4 hrs.): 32%
% Inhibition of Blood Platelet Aggregation Induced by Collagen ([3]; 6 hrs.): 45%
% Inhibition of Blood Platelet Aggregation Induced by Collagen ([3]; 24 hrs.): 0%

N=C(N/C=C/c1ccc(Cl)c(Cl)c1)C1CC1 [N-(3,4-DICHLOROSTYRYL)CYCLOPROPANECARBOXAMIDINE HYDROCHLORIDE]
% Inhibition of Blood Platelet Aggregation Induced by ADP ([3]; 1 hr.): 60%
% Inhibition of Blood Platelet Aggregation Induced by ADP ([3]; 2 hrs.): 55%
% Inhibition of Blood Platelet Aggregation Induced by ADP ([3]; 4 hrs.): 90%
% Inhibition of Blood Platelet Aggregation Induced by ADP ([3]; 6 hrs.): 75%
% Inhibition of Blood Platelet Aggregation Induced by ADP ([3]; 24 hrs.): 5%
% Inhibition of Blood Platelet Aggregation Induced by Collagen ([3]; 1 hr.): 65%
% Inhibition of Blood Platelet Aggregation Induced by Collagen ([3]; 2 hrs.): 85%
% Inhibition of Blood Platelet Aggregation Induced by Collagen ([3]; 4 hrs.): 97%
% Inhibition of Blood Platelet Aggregation Induced by Collagen ([3]; 6 hrs.): 87%
% Inhibition of Blood Platelet Aggregation Induced by Collagen ([3]; 24 hrs.): 15%

N=C(N/C=C/c1ccc(Cl)c(Cl)c1)C1CC1 [N-(3,4-dichlorostyryl)cyclopropanecarboxamidine]
IC50 (platelet aggregation): < 30 µg/mL

CC(=N)N/C=C/c1ccc(C2CCCCC2)c(Br)c1 [N-(3-BROMO-4-CYCLOHEXYLSTYRYL)ACETAMIDINE HYDROCHLORIDE]
IC50 (platelet aggregation): < 30 µg/mL

CC(=O)Nc1ccc(/C=C/NC(=N)c2ccccc2)cc1 [N-(4-ACETAMIDOSTYRYL)BENZAMIDINE HYDROCHLORIDE]
IC50 (platelet aggregation): < 30 µg/mL

N=C(N/C=C/c1ccc(N)cc1)c1ccccc1 [N-(4-AMINOSTYRYL)BENZAMIDINE DIHYDROCHLORIDE]
IC50 (platelet aggregation): < 30 µg/mL

CC(=N)NS(=O)(=O)C=Cc1ccc([N+](=O)[O-])cc1 [N-(4-nitrostyrylsulfonyl)-acetamidine, N-(4-NITROSTYRYLSULFONYL)ACETAMIDINE]
Analgesic activity, Percent Inhibition ([4]; subcutaneous 6 mg./kg., time interval 60 min.): 36%

CC(=N)NS(=O)(=O)C=Cc1ccccc1 [N-(styrylsulfonyl)acetamidine, N-(STYRYLSULFONYL)ACETAMIDINE]
Analgesic activity, Percent Inhibition ([4]; subcutaneous 6 mg./kg., time interval 15 min.): 38%

N=C(NS(=O)(=O)C=Cc1ccccc1)c1ccccc1 [N-(styrylsulfonyl)benzamidine, N-(STYRYLSULFONYL)BENZAMIDINE]
Analgesic activity, Percent Inhibition ([4]; oral 100 mg./kg., time interval 60 min.): 26%
Analgesic activity, Percent Inhibition [4, 5]: 36%

CC(=N)NS(=O)(=O)C=Cc1ccc(Cl)c(Cl)c1 [N-[(3,4-DICHLOROSTYRYL)SULFONYL]ACETAMIDINE]
Analgesic activity, Percent Inhibition ([4]; oral 100 mg./kg., time interval 120 min.): 36%
Analgesic activity, Percent Inhibition [4, 5]: 28%

N=C(N/C=C/c1ccccc1)c1ccccc1 [N-styrylbenzamidine hydrochloride, N-STYRYLBENZAMIDINE HYDROCHLORIDE]
IC50 (platelet aggregation): < 30 µg/mL

Source: patent publication US4052455A, “Styrylamidines” (Mead Johnson & Company, priority 1975, dated 1977)
